Test results as given in patent US20090004211A1, “METHOD FOR EFFECTING LOCALIZED, NON-SYSTEMIC AND SYSTEMIC, IMMUNOGENIC TREATMENT OF CANCER USING ERP57 TRANSLOCATION” (priority 2006, published 2009).

Assays:
[1] = system: CT26 tumor cells; test: Anti-tumor vaccination: treated dying CT26 cells injected s.c., challenge with live tumor cells in opposite flank; assay type: in vivo, BALB/c mice; conditions: CT26 cells treated in vitro with agent alone, immunocompetent BALB/c mice
[2] = system: CRT; test: Biotinylation of cell surface proteins, 2D gel electrophoresis and mass spectrometry: CRT; assay type: cell-based, mouse; conditions: 4 h treatment, vs untreated cells
Procedure: Biotinylation and recovery of cell surface proteins were performed with a method adopted from Gottardi et al. (Gottardi, C. J. et al., “Biotinylation and assessment of membrane polarity: caveats and methodological concerns,” Am J Physiol 268, F285-295 (1995)) and Hanwell et al. (Hanwell, D. et al., “Trafficking and cell surface stability of the epithelial Na+ channel expressed in epithelial Madin-Darby canine kidney cells,” J Biol Chem 277, 9772-9779 (2002)). Briefly, 20×10^6 CT26 cells grown on 75 cm^2 flask were placed on ice and washed three times with ice-cold PBS-Ca^2+—Mg^2+ (PBS with 0.1 mM CaCl2 and 1 mM MgCl2). Membrane proteins were then biotinylated by a 30-minute incubation at 4° C. with NHS-SS-biotin 1.25 mg/ml freshly diluted into biotinylation buffer (10 mM triethanolamine, 2 mM CaCl2, 150 mM NaCl, pH 7.5) with gentle agitation. CT26 cells were rinsed with PBS-Ca^2+—Mg^2++glycine (100 mM) and washed in this buffer for 20 minutes at 4° C. to quench unreacted biotin. The cells were then rinsed twice with PBS-Ca^2+—Mg^2+, scraped in cold PBS, and pelleted at 2,000 rpm at 4° C. The pellets were solubilized for 45 min in […] of lysis buffer (1% Triton X-100, 150 mM NaCl, 5 mM EDTA, 50 mM Tris, pH 7.5) containing protease inhibitors. […]

[3] = system: ERP57; test: Biotinylation of cell surface proteins, 2D gel electrophoresis and mass spectrometry: ERP57; assay type: cell-based, mouse; conditions: 4 h treatment, vs untreated cells
Procedure: Biotinylation and recovery of cell surface proteins were performed with a method adopted from Gottardi et al. (Gottardi, C. J. et al., “Biotinylation and assessment of membrane polarity: caveats and methodological concerns,” Am J Physiol 268, F285-295 (1995)) and Hanwell et al. (Hanwell, D. et al., “Trafficking and cell surface stability of the epithelial Na+ channel expressed in epithelial Madin-Darby canine kidney cells,” J Biol Chem 277, 9772-9779 (2002)). Briefly, 20×10^6 CT26 cells grown on 75 cm^2 flask were placed on ice and washed three times with ice-cold PBS-Ca^2+—Mg^2+ (PBS with 0.1 mM CaCl2 and 1 mM MgCl2). Membrane proteins were then biotinylated by a 30-minute incubation at 4° C. with NHS-SS-biotin 1.25 mg/ml freshly diluted into biotinylation buffer (10 mM triethanolamine, 2 mM CaCl2, 150 mM NaCl, pH 7.5) with gentle agitation. CT26 cells were rinsed with PBS-Ca^2+—Mg^2++glycine (100 mM) and washed in this buffer for 20 minutes at 4° C. to quench unreacted biotin. The cells were then rinsed twice with PBS-Ca^2+—Mg^2+, scraped in cold PBS, and pelleted at 2,000 rpm at 4° C. The pellets were solubilized for 45 min in […] of lysis buffer (1% Triton X-100, 150 mM NaCl, 5 mM EDTA, 50 mM Tris, pH 7.5) containing protease inhibitors. The lysates were clarified by centrifugation at 14,000×g for 10 min at 4° C., and the supernatants were incubated overnight with packed streptavidin-agarose beads to recover biotinylated proteins. The beads were then pelleted by centrifugation, and aliquots of supernatants were taken to represent the unbound, intracellular pool of proteins. Biotinylated proteins were eluted from the beads by heating to 100° C. for 5 minutes in SDS-PAGE sample buffer before loading onto a 10% SDS-PAGE gel as described above. To ensure the absence of leakage of biotin into the cells, the absence of the intracellular protein actin and GAPDH in biotinylated extracts was systematically verified.
Purified proteins were precipitated using the Ettan 2-D clean up kit were subsequently resuspended in urea buffer (7M urea, 2M thiourea, 2% Chaps, 1% Sulfobetaine SB3-10, 1% Amidosulfobetaine ASB14, 50 mM DTT). For the first dimension of protein separation, isoelectric focusing (IEF) was performed using 18-cm immobilized nonlinear pH gradient strips (pH 3 to 10; GE Healthcare) on a electrophoresis unit. […]

[4] = system: CT26 cells; test: Phagocytosis assay: uptake of treated tumor cells by dendritic cells; assay type: cell-based, mouse; conditions: before apoptotic changes
Procedure: BM cells were flushed from the tibias and femurs of BALB/c mice with culture medium composed of RPMA 1640 medium supplemented with 10% heat-inactivated FBS, sodium pyruvate, […] 2-ME. 10 mM HEPES (pH 7.4), and penicillin/streptomycin. After one centrifugation, BM cells were resuspended in Tris-ammonium chloride for 2 min to lyse RBC. After one more centrifugation, BM cells (1×10^6 cells/ml) were cultured in medium supplemented with 100 ng/ml recombinant mouse FLT3 ligand in 6-well plates. […] In 12-well plates, […] adherent CT26 cells were labeled with Celltracker Orange and then incubated with drugs. […] Alternatively CT26 cells were coated with 3 μg/10^6 cells of rCRT on ice for 30 minutes and washed twice prior to addition to dendritic cells. Cells were then harvested, washed three times with medium supplemented with FBS and cocultured with immature DC for 2 hours at a ratio of 1:1 and 1:5. At the end of the incubation, cells were harvested with Versene, pooled with non-adherent cells present in the supernatant, washed and stained with CD11c-FITC antibody. Phagocytosis was assessed by FACS analysis of double positive cells. Phagocytic indexes refer to the ratio between values obtained at […] of co-incubation between DC and tumor cells. Trypsinized CT26 cells were enucleated as described. Briefly, cells were treated in 2 ml of complete RPMI medium containing cytochalasin B (10 μg/ml; Sigma) and DNase I (80 U/ml; Sigma). Cell suspension was adjusted to a final concentration of 5×10^6/ml and incubated at 37° C. for 45 minutes before being layered onto a previously prepared discontinuous Ficoll density gradient (3 ml of 100%, in 1 ml of 90% and 3 ml of 55% Ficoll Paque layer containing 5 μg/ml cytochalasin B and 40 U/ml DNase I; gradients were prepared in ultracentrifuge tubes and pre-equilibrated at 37° C. in a CO2 incubator overnight). Gradients containing cell suspensions were centrifugated in a prewarmed SW41 Beckman rotor at 25 000 rpm for 20 minutes at 30° C. The cytoplasts-enriched fraction was collected from the interface between 90 and 100% Ficoll layers, washed in complete RPMI 1640 medium, and incubated at 37° C. The cells were incubated with mitoxantrone (MTX), calyculin (CA), salubrinal (Sal) and toutomycin (TA) for the period of time indicated in the experiment. […] Alternatively cythoplasts were cocultured with immature DC for 2 hours at a ratio of 1:1 and 1:5. At the end of the incubation, cells were harvested with versene, pooled with non-adherent cells present in the supernatant, washed and stained with CD11c-FITC antibody. Phagocytosis was assessed by FACS analysis of double positive cells.

[5] = system: CRT; test: Fluorescence detection of cell surface CRT (cytofluorometry); conditions: intact cells
Procedure: CT26 cells (on a glass slide or in 12-well plates) were first washed with FACS buffer (1×PBS, 5% fetus bovine serum, and 0.1% sodium azide) and then incubated with rabbit anti-mouse CRT antibody (1:100, Stressgen), or rabbit anti-mouse ERP57 antibody (abcam) in FACS buffer at 4° C. for 30 min. […] After washing three times with FACS buffer, surface CRT and ERP57 was detected by cytofluorometric analysis on a FACS Vantage. In some experiments, cells were fixed with 4% paraformaldehyde, counterstained with Hoechst (2 μM; Sigma), followed by fluorescence microscopic assessment.
Trypsinized CT26 cells were enucleated as described. Briefly, cells were treated in 2 ml of complete RPMI medium containing cytochalasin B (10 μg/ml; Sigma) and DNase I (80 U/ml; Sigma). […] Gradients containing cell suspensions were centrifugated in a prewarmed SW41 Beckman rotor at 25 000 rpm for 20 minutes at 30° C. […] Then the cell surface CRT was detected (see materials and methods) and the viability was determined by with propidium iodine staining (2 μg/ml, Sigma) for 5 min followed by cytofluorometric analysis.

COc1cccc2c1C(=O)c1c(O)c3c(c(O)c1C2=O)C[C@@](O)(C(=O)CO)C[C@@H]3O[C@H]1C[C@H](N)[C@H](O)[C@H](C)O1 [doxorubicin]
immunogenicity of cell death (protection against tumor growth on rechallenge) [1]: elicited immunogenic cell death
induction of surface CRT, factor [2]: 6
induction of surface ERP57 spot 1, factor [3]: 4.1
induction of surface ERP57 spot 2, factor [3]: 3.4
induction of surface ERP57 spot 3, factor [3]: 8
induction of surface ERP57 spot 4, factor [3]: 8.1
time after treatment at which tumor cells are phagocytosed by DC [4]: within a few hours after treatment
time after treatment at which CRT exposure is detectable [5]: 1 h
